Values quoted from earlier work as cited in patent US20050037089A1, “Method for promoting bone growth” (priority 2003, published 2005).

CC[C@H](C)[C@H](NC(=O)[C@H](CCC(=O)O)NC(=O)[C@H](CO)NC(=O)[C@@H](NC(=O)[C@@H](N)CO)C(C)C)C(=O)N[C@@H](CCC(N)=O)C(=O)N[C@@H](CC(C)C)C(=O)N[C@@H](CCSC)C(=O)N[C@@H](Cc1cnc[nH]1)C(=O)N[C@@H](CC(N)=O)C(=O)N[C@@H](CC(C)C)C(=O)NCC(=O)N[C@@H](CCCCN)C(=O)N[C@@H](Cc1cnc[nH]1)C(=O)N[C@@H](CC(C)C)C(=O)N[C@@H](CC(N)=O)C(=O)N[C@@H](CO)C(=O)N[C@@H](CCSC)C(=O)N[C@@H](CCC(=O)O)C(=O)N[C@@H](CCCN=C(N)N)C(=O)N[C@H](C(=O)N[C@@H](CCC(=O)O)C(=O)N[C@@H](Cc1c[nH]c2ccccc12)C(=O)N[C@@H](CC(C)C)C(=O)N[C@@H](CCCN=C(N)N)C(=O)N[C@@H](CCCCN)C(=O)N[C@@H](CCCCN)C(=O)N[C@@H](CC(C)C)C(=O)N[C@@H](CCC(N)=O)C(=O)N[C@@H](CC(=O)O)C(=O)N[C@H](C(=O)N[C@@H](Cc1cnc[nH]1)C(=O)N[C@@H](CC(N)=O)C(=O)N[C@@H](Cc1ccccc1)C(=O)O)C(C)C)C(C)C [hPTH(1-34)]
bone formation (patients with osteoporosis, subcutaneous administration): increase bone formation
bone density (postmenopausal women, daily subcutaneous administration of 20 μg or 40 μg): increase bone density
